Source: PubChem BioAssay AID743417 (Broad Institute, 2014)
Records with an inconclusive call do not appear. Calls of active or inactive are those of the source.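 Rule for the calls: active = compounds lowering the luciferase signal with a fitted half-maximal dose at most twice their top valid dose (cut at about 30 µM in these data); inconclusive = flat fits with moderate signal loss, or poor fits; inactive = the rest.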

Tested on: Clone20 osteoblast Shn3 3'UTR firefly luciferase, 24 h
Test: Shn3 3'UTR reporter inhibitors, dose response, cell-based, Clone20 osteoblasts, luminescence, dry powder, set 2 (AID 743417)

SMILES | AC50
COc1ccccc1C(NC(C)=O)c1cc(Cl)c2cccnc2c1O (configuration not stated) | 2560 nM
Cc1ccc(NC(=O)c2cc(S(=O)(=O)NCCC3=CCCCC3)ccc2F)cc1F | 4130 nM
CCCNc1nc2c(c(=O)n(C)c(=O)n2C)n1Cc1cccc(C)c1 | 1910 nM
CCn1c2ccccc2c2cc(CNCc3ccc(OC)cc3OC)ccc21 | 14700 nM
COC(=O)c1ccc(N2CCN(S(=O)(=O)c3ccc(C)cc3)CC2)c([N+](=O)[O-])c1 | 3880 nM
COc1ccc(CC(=O)Nc2ccncc2Cl)cc1 | 2120 nM
O=C(N[C@@H]1C/C=C\C[C@H](CC(=O)N(CCO)Cc2ccccc2)C(=O)NC[C@@H](c2ccccc2)OC1=O)OCC1c2ccccc2-c2ccccc21 | 4500 nM
CS(=O)(=O)c1ncc(Cl)c(C(=O)Nc2ccc(N3CCOCC3)cc2)n1 | 1210 nM
COCCn1c(SCC(=O)/C=C2\N(C)c3ccccc3C2(C)C)nnc1-c1ccncc1 | 2650 nM
Cc1ccc(NC(=O)CSc2ccc3c(c2)OCCO3)c(O)c1 | 343 nM
CCOC(=O)c1ccc(NC(=O)Cn2ncc(Cl)c(Cl)c2=O)cc1 | 2320 nM
CCCC(=O)NC(=S)Nc1ccc(N2CCN(C(=O)c3cccs3)CC2)cc1 | 10100 nM
COc1ccc(CCNc2cc(N3CCN(C(=O)c4ccccc4OC)CC3)ccc2[N+](=O)[O-])cc1OC | 2630 nM
CCc1nnc(NC(=O)c2cccc(C(=O)Nc3nnc(CC)s3)n2)s1 | 1450 nM
CC(=O)NC(c1ccc(C(C)C)cc1)c1ccc2cccnc2c1O (configuration not stated) | 528 nM
CCN(CC)C(=O)C1CCN(S(=O)(=O)c2ccc3oc4ccccc4c3c2)CC1 | 3960 nM
COc1ccc(C2/C=C\CN(S(=O)(=O)c3ccc(C)cc3)[C@H](Cc3ccccc3)C(=O)N2Cc2ccc(F)cc2)cc1 (some centres not stated) | 12900 nM
Cc1nnc(NC(=O)c2nc(S(=O)(=O)Cc3ccccc3)ncc2Cl)s1 | 1340 nM
Fc1ccc2[nH]c3c(N4CCSCC4)ncnc3c2c1 | 2760 nM
CCCc1nnc(NC(=O)c2nc(S(=O)(=O)Cc3ccc(C)cc3)ncc2Cl)s1 | 538 nM
Cc1cccc(C(C)(C)C)c1OCCN1CCCC1 | 34200 nM
COc1ccc(S(=O)(=O)N(C)C)cc1NC(=O)C1CCN(c2ncnc3sc(C)c(C)c23)CC1 | 9210 nM
Cc1ccc(S(=O)(=O)Nc2ccc(O)c3ncccc23)cc1 | 1550 nM
O=C(c1ccccc1)c1ccccc1N1C(=O)C=CC1=O | 16700 nM

SMILES | AC50
CS(=O)(=O)c1ccc(C(=O)OCC(=O)Nc2cccnc2Cl)cc1[N+](=O)[O-] | 9090 nM
COc1ccccc1-c1cc(C(F)(F)F)nc(S(=O)(=O)CCCC(=O)Nc2cccnc2Cl)n1 | 10600 nM
COc1cc(NC(=O)NCc2ccco2)ccc1-c1ccc(NC(=O)NCc2ccco2)cc1OC | 3190 nM
C#CCN(C[C@@H]1[C@@H](OC(=O)NC2CCCC2)[C@@H](OC(=O)NC2CCCC2)Cn2c(=O)ccc(=O)n21)S(=O)(=O)c1ccc(C)cc1 | 12900 nM
O=C(Cc1ccc(Cl)cc1)Nc1ccc(N2CCN(C(=O)c3ccco3)CC2)cc1 | > 70000 nM (inactive)
O=C(CSc1c2c(nc3ccc(Cl)cc13)CCCC2)N1CCN(C(=O)c2ccco2)CC1 | 3750 nM
CC1Sc2ccc(S(=O)(=O)N3CCC(C(=O)Nc4ccc(Cl)cc4)CC3)cc2NC1=O (configuration not stated) | 2420 nM
CCCCNc1c(-c2ccc(OC)c(SC3CCCCC3)c2)nc2ccc(C)cn12 | 3680 nM
CC(C)(C)C(=O)Nc1ccc(NC(=O)c2ccco2)nc1 | 1170 nM
CC(C)(C)[C@@H]1COC(=O)[C@@H](NC(=O)OCC2c3ccccc3-c3ccccc32)C/C=C\C[C@@H](CC(=O)NCCO)C(=O)N1 | 22100 nM
CCN(c1ccccc1)S(=O)(=O)c1ccc(NC(=O)c2nc(S(C)(=O)=O)ncc2Cl)cc1 | 562 nM
COc1ccc(C(NC(C)=O)c2ccc3cccnc3c2O)c(OC)c1 (configuration not stated) | 1740 nM
Cc1ccc2nc(NC(=O)C3CCN(S(=O)(=O)c4ccc5c(c4)oc(=O)n5C)CC3)sc2c1 | 3350 nM
Cn1c(SCc2cccc(Br)c2)nc2ccccc2c1=O | 7680 nM
CCn1c(C)cc(C(=O)COC(=O)c2ccccc2[N+](=O)[O-])c1C | < 260 nM
CCN(CC)S(=O)(=O)c1cccc(NC(=O)CNc2cccc(S(=O)(=O)N3CCCC3)c2)c1 | 317 nM
Cc1ccc(NC(=O)c2oc3ccccc3c2COC(C)C)cc1S(=O)(=O)N1CCOCC1 | 14400 nM
COc1ccc(C(=O)NNC(=O)c2cccc(S(=O)(=O)N3CCOCC3)c2)cc1 | 23200 nM
CN(c1ccccc1)S(=O)(=O)c1cccc(NC(=O)CSc2nncs2)c1 | 1440 nM
CC(C)CCNc1nc(N)c([N+](=O)[O-])c(N2CCCCCC2)n1 | 8790 nM
CC(C)c1nc(SCC(=O)Nc2cccc(C(F)(F)F)c2)c2c(=O)n(C)c(=O)n(C)c2n1 | 2700 nM
CC(=O)c1c(C)[nH]c(C(=O)OCC(=O)Nc2ccc(Cl)cc2[N+](=O)[O-])c1C | 325 nM
O=C(OCC12CC3CC(CC(C3)C1)C2)c1ccc(NCc2cc(O)ccc2O)cc1 | 3250 nM
Oc1c(CN2CCCCC2)ccc2cccnc12 | 2110 nM

SMILES | AC50
Cc1ccc(Cn2ccc(NC(=O)c3nn(C)cc3[N+](=O)[O-])n2)cc1 | 4090 nM
Cc1c(C(C)C)c(=O)n(-c2ccc(S(=O)(=O)NC3CCCCC3)cc2)n1C | 1060 nM
OC[C@@H]1CN(Cc2ccncc2)C[C@H](n2cnc3c(N4CCN(c5ccccc5)CC4)ncnc32)O1 | 2380 nM
C[C@@H]1C[C@@H]([C@H](O)CC2CC(=O)NC(=O)C2)C(=O)[C@@H](C)C1 | 345 nM
CS(=O)(=O)c1ncc(Cl)c(C(=O)Nc2ccc(OC(F)F)cc2)n1 | 682 nM
CCN(CC)C(=S)Sc1c(-c2ccccc2)c2cc(Cl)ccc2[nH]c1=O | 27000 nM
COc1ccccc1NC(=O)Cn1cc(C(=O)C2CC2)c2ccccc21 | 4760 nM
COc1ccc(-n2nc3c(N4CCC(C(=O)NCC(C)c5ccccc5)CC4)nnc(C)c3c2C)cc1 (configuration not stated) | 3250 nM
O=C(NNC(=O)c1cccnc1SCc1cccc([N+](=O)[O-])c1)c1ccccn1 | 1900 nM
CCOc1ccc(Cn2nnc(C(=O)Nc3cc(OC)cc(OC)c3)c2N)cc1 | 5300 nM
CC(C)C(=O)NC(c1ccco1)c1ccc2cccnc2c1O (configuration not stated) | 2050 nM
Cc1c(C(=O)Nc2cccc(C(F)(F)F)c2)oc2ccc(S(=O)(=O)N3CCOCC3)cc12 | 3800 nM
CCCCCn1c(=N)n(CC(O)COc2ccccc2OC)c2ccccc21 (configuration not stated) | 2120 nM
O=C(c1cccc(S(=O)(=O)N2CCN(c3ccc(F)cc3)CC2)c1)N1CCCC(C(F)(F)F)C1 (configuration not stated) | 942 nM
COc1ccc(OC)c(/C=C/C(=O)N2C(=O)c3cccc(N)c3C2=O)c1 | 3250 nM
CN(CC(=O)Nc1ccccc1Cl)C(=O)c1cccc(S(=O)(=O)N2CCN(Cc3ccccc3)CC2)c1 | 3470 nM
C=CCN(c1ccccc1)S(=O)(=O)c1cccc(C(=O)Nc2nc3ccccc3[nH]2)c1 | 10000 nM
Cc1cc(S(=O)(=O)NCc2ccncc2)c(C)cc1Br | 1230 nM
O=C(Nc1ccc(Oc2ccccc2)cc1)C1CCN(c2c3c(nc4ncnn24)CCC3)CC1 | 5640 nM
CCN(CC)c1ccc(NC(=O)CN2C(=O)CSc3ncccc32)c(C)c1 | 1780 nM
C#CCN(C[C@@H]1[C@@H](OC(=O)NCC2CCCCC2)[C@@H](OC(=O)NCC2CCCCC2)Cn2c(=O)ccc(=O)n21)S(=O)(=O)c1ccc(C)cc1 | 2490 nM
Cc1ccc(C(c2cc(Cl)c3cccnc3c2O)N2CCN(C)CC2)cc1 (configuration not stated) | 5540 nM
Cc1cccc(N2C(=O)NC(=O)/C(=C\C=C\c3ccco3)C2=O)c1 | 3060 nM
CCN(CC)S(=O)(=O)c1ccc(C)c(NC(=S)N2CCN(C/C=C/c3ccccc3)CC2)c1 | 2550 nM
